Patent publication US20060105045A1, “Cyclodextrin solubilizers for liquid and semi-solid formulations” (priority 2004, published 2006)
Where a name gives a salt, the structure may show the parent alone.

Columns and labels:
[1] = Initial solubility screening of selected drugs in cyclodextrin derivative:water-miscible organic solvent stock solutions; format: physicochemical; conditions: for grams of stock solution required to solubilize the drug, Stock #2 / grams of stock solution required to solubilize the drug, Stock #3 / grams of stock solution required to solubilize the drug, Stock #1 / grams of stock solution required to solubilize the drug, Stock #5 / grams of stock solution required to solubilize the drug, Stock #6 / grams of stock solution required to solubilize the drug, Stock #4 / grams of stock solution required to solubilize the drug, Stock #7: 20-22 mg drug, raloxifene HCl + ca. 100 mg water, tamoxifen citrate + ca. 40 mg water; for grams of stock solution required to solubilize the drug, Stock #2 / grams of stock solution required to solubilize the drug, Stock #3 / grams of stock solution required to solubilize the drug, Stock #1: HBenβCD5.0 (30 wt %); for grams of stock solution required to solubilize the drug, Stock #2 / grams of stock solution required to solubilize the drug, Stock #3: PEG 400 (66.2 wt %); for grams of stock solution required to solubilize the drug, Stock #2: EtOH (3.8 wt %); for grams of stock solution required to solubilize the drug, Stock #3: PG (3.8 wt %); for grams of stock solution required to solubilize the drug, Stock #1: PEG 400 (70 wt %); for grams of stock solution required to solubilize the drug, Stock #5 / grams of stock solution required to solubilize the drug, Stock #6 / grams of stock solution required to solubilize the drug, Stock #4: HBenβCD6.6 (32 wt %); for grams of stock solution required to solubilize the drug, Stock #5 / grams of stock solution required to solubilize the drug, Stock #6: PEG 400 (64.6 wt %); for grams of stock solution required to solubilize the drug, Stock #5 / grams of stock solution required to solubilize the drug, Stock #7: EtOH (3.4 wt %); for grams of stock solution required to solubilize the drug, Stock #6: PG (3.4 wt %); for grams of stock solution required to solubilize the drug, Stock #4: PEG 400 (68 wt %); for grams of stock solution required to solubilize the drug, Stock #7: SulfoHBenCD (29 wt %), PEG 400 (67.6 wt %); for amount of stock solutions in which the drug was soluble: after mixing for ca. 48 h, all stock solutions
Description: In the following experiments, the water-miscible solvents were dried as described in example 1. The hydroxybutenyl-β-cyclodextrins (HBenβCD6.6 and HBenβCD5.0) and the sulfonated hydroxybutenyl-β-cyclodextrins (MSsulfonate=0.3, MSbutentyl=4.4) were carefully dried prior to use. The following stock solutions were prepared:
2. HBenβCD5.0 (30 wt %), PEG 400 (66.2 wt %), and EtOH (3.8 wt %)
7. SulfoHBenCD (29 wt %), PEG 400 (67.6 wt %), and EtOH (3.4 wt %)
Various drugs (20-22 mg) were weighed into different glass vials with screw caps. To each vial was added 1 gram (g) ±0.02 g of stock solution. The vial contents were mixed for ca. 48 h. Vials were inspected visually to determine whether the drugs were dissolved.

[2] = Pharmacokinetic study, oral bioavailability of tamoxifen:HBenBCD complexes; format: in vivo, Sprague-Dawley rats; conditions: male, Sprague-Dawley, rat, plasma, 10 mg/kg
Description: 7, 2005, concurrently with this application (no Serial assigned at this time). […] The solid complexes were dissolved in the appropriate amount of water for aqueous oral dosing of animals.
The study animal were male Sprague-Dawley rats. […] Each group was sub-divided into 4 groups of 3 animals on the basis of time of dosing (AM or PM) and diet (fed or fasted). In the case of fasted animals, food was removed 8 hours prior to dosing then returned 5 hours post-dose.
Blood samples (ca. 300 μL) were collected from each animal via the jugular or sublingual vein at 1, 2, 3, 4, 6, 12 and 24 hours post-dose. Plasma was separated and stored in 96 well plates at −17 to −80° C. until analysis. […] Plasma (100 μL) was precipitated with 250 μL of acetonitrile. After centrifugation, the supernatant was analyzed for tamoxifen, hydroxytamoxifen, and desmethyltamoxifen by reversed phase LC-MS-MS using diphenhydramine as an internal standard.
This oral suspension dose was given to fed animals in the AM.
The area under the plasma concentration-time curve (AUC) from time zero to 24 h (AUC0-24h) and from time zero to infinity (AUC0-∞) was calculated by standard methods (Clinical Pharmacokinetics, Malcolm Rowland and Thomas Tozer, Lippincott, Williams, & Wilkins, 1995). Oral bioavailability was determined using the AUC from the IV and oral doses adjusted for the animal dose.

Row | SMILES | grams of stock solution required to solubilize the drug, Stock #2 [1] [grams] | grams of stock solution required to solubilize the drug, Stock #3 [1] [grams] | grams of stock solution required to solubilize the drug, Stock #1 [1] [grams] | grams of stock solution required to solubilize the drug, Stock #5 [1] [grams] | grams of stock solution required to solubilize the drug, Stock #6 [1] [grams] | grams of stock solution required to solubilize the drug, Stock #4 [1] [grams] | grams of stock solution required to solubilize the drug, Stock #7 [1] [grams] | amount of stock solutions in which the drug was soluble [1] [g] | bioavailability [2] [%]
1 | C=C1C[C@@H]2[C@H](CC[C@]3(C)C(=O)CC[C@@H]23)[C@@]2(C)C=CC(=O)C=C12 [Exemestane] | 1.5 | 1.5 | 1.5 | 1.5 | 1.5 | 1.5 | 1.5 |  | 
2 | CC(C)(C#N)c1cc(Cn2cncn2)cc(C(C)(C)C#N)c1 [Anastrozole] | 1.0 | 1.0 | 1.0 | 1.0 | 1.0 | 1.0 | 1.0 | 1 | 
3 | O=C(c1ccc(OCCN2CCCCC2)cc1)c1c(-c2ccc(O)cc2)sc2cc(O)ccc12 [Raloxifene HCL] | 1.4 | 1.6 | 1.5 | 1.6 | 1.6 | 1.6 | 1.1 |  | 

The remaining lines, values ahead:

Row | grams of stock solution required to solubilize the drug, Stock #2 [1] [grams] | grams of stock solution required to solubilize the drug, Stock #3 [1] [grams] | grams of stock solution required to solubilize the drug, Stock #1 [1] [grams] | grams of stock solution required to solubilize the drug, Stock #5 [1] [grams] | grams of stock solution required to solubilize the drug, Stock #6 [1] [grams] | grams of stock solution required to solubilize the drug, Stock #4 [1] [grams] | grams of stock solution required to solubilize the drug, Stock #7 [1] [grams] | amount of stock solutions in which the drug was soluble [1] [g] | bioavailability [2] [%] | SMILES
4 | 1.0 | 1.0 | 1.0 | 1.0 | 1.0 | 1.0 | 1.0 | 1 |  | CC(=O)O[C@H]1C(=O)[C@@]2(C)[C@H]([C@H](OC(=O)c3ccccc3)[C@]3(O)C[C@H](OC(=O)[C@H](O)[C@@H](NC(=O)c4ccccc4)c4ccccc4)C(C)=C1C3(C)C)[C@]1(OC(C)=O)CO[C@@H]1C[C@@H]2O [Paclitaxel]
5 |  |  |  |  |  |  |  |  | 5 | CC/C(=C(\c1ccccc1)c1ccc(OCCN(C)C)cc1)c1ccccc1 [Tamoxifen]
